Biological target: T1, hM5 (human Muscarinic receptor subtype 5) (Homo sapiens, UniProt P08912)
T1 construct: expressed in transfected cells; host or cells: CHO cells (ATCC)
T1 sequence (P08912 1-532): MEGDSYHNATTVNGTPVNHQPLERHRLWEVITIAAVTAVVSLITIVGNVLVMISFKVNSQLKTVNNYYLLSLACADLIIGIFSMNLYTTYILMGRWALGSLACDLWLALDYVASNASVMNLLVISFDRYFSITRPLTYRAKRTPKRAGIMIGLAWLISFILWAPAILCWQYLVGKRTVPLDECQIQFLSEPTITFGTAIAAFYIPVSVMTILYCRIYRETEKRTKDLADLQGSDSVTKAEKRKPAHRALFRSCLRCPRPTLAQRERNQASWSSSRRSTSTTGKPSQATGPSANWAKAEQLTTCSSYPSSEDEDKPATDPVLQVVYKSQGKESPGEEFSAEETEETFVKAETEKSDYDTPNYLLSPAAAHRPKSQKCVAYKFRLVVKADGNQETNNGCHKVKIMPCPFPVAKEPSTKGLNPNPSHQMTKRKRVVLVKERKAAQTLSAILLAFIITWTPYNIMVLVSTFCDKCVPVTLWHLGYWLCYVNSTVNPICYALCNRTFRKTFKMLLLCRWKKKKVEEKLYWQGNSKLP
Assay: Human M5 calcium mobilization FLIPR assay
Assay type: cell-based
Settings: hM5 expressed in CHO cells, intracellular Ca2+ release (FLIPR)
Method: Human M1, rat M1, Human M3 and Human M5 Calcium Mobilization FLIPR™ Assay The compound activity in the present invention (EC50 or IC50) is measured using a 384 plate-based imaging assay that monitors drug induced intracellular Ca^2+ release in whole cells. Activation of hM1 (human Muscarinic receptor subtype 1, gene bank access NM_000738), rM1 (rat Muscarinic receptor subtype 1, gene bank access NM_080773), hM3 (human Muscarinic receptor subtype 3, gene bank access NM_000740NM_000740) and hM5 (human Muscarinic receptor subtype 5, gene bank access NM_0121258), receptors expressed in CHO cells (Chinese hamster ovary cells, ATCC) is quantified in a Molecular Devices FLIPR IITM instrument as an increase in fluorescent signal. Inhibition of hM3 and hM5 by compounds is determined by the decrease in fluorescent signal in response to 2 nM acetylcholine activation. […] Prior to experiment, the cell culture medium is removed from the plates by inversion. […] Plates are incubated at 37° C. for 60 minutes prior to start the experiment. The incubation is terminated by washing the cells four times in assay buffer, leaving a residual 25 μl buffer per well. Cell plates are then transferred to the FLIPR, ready for compound additions. The day of experiment, acetylcholine and compounds are diluted in assay buffer in three-fold concentration range (10 points serial dilution) for addition by FLIPR instrument. For all calcium assays, a baseline reading is taken for 10 seconds followed by the addition of 12.5 μl of compounds, resulting in a total well volume of 37.5 μl. Data is collected every second for 60 pictures and then every 6 seconds for 20 pictures prior to the addition of agonist. For hM3 and hM5, before agonist addition, a second baseline reading is taken for 10 seconds followed by the addition of 12.5 μl of agonist or buffer, producing a final volume of 50 μl. After agonist stimulation, the FLIPR continues to collect data every second for 60 pictures and then every 6 seconds for 20 pictures. The fluorescence emission is read using filter 1 (emission 510-570 nm) by the FLIPR on board CCD camera. Calcium mobilization output data are calculated as the maximal relative fluorescence unit (RFU) minus the minimal value for both compound and agonist reading frame (except for hM1 and rM1 using only the maximal RFU). Data are analyzed using sigmoidal fits of a non-linear curve-fitting program (XLfit version 4.2.2 Excel add-in version 4.2.2 build 18 math 1Q version 2.1.2 build 18). All pEC50 and pIC50 values are reported as arithmetic means±standard error of mean of ‘n’ independent experiments.

| SMILES | EC50 |
| --- | --- |
| CC(C)OCC1CCC(N2CCC(N3C(=O)CO[C@H]4CCC(F)(F)C[C@@H]43)CC2)CC1 (single isomer, unassigned) [Example 38] | > 40 µM |
| CC(C)OCC1CCC(N2CCC(N3C(=O)CO[C@H]4CCCC[C@@H]43)CC2)CC1 (single isomer, unassigned) [Example 19] | > 40 µM |
| CCOCC1CCC(N2CCC(N3C(=O)CO[C@H]4CCCC[C@@H]43)CC2)C1 (single isomer, unassigned) [Example 44] | 2.92 µM |
| O=C1CO[C@H]2CCCC[C@@H]2N1C1CCN(C2CCC(COCC(F)F)CC2)CC1 (single isomer, unassigned) [Example 26] | > 40 µM |
| CC(C)OCC1CCC(N2CCC(N3C(=O)CO[C@H]4CCCC[C@@H]43)CC2)CC1 (mixture of isomers) [Example 15, (4aS,8aS)-4-(1-(4-(isopropoxymethyl)cyclohexyl)piperidin-4-yl)hexahydro-2H-benzo[b][1,4]oxazin-3(4H)-one] | > 40 µM |
| O=C1CO[C@H]2CCCC[C@@H]2N1C1CCN(C2CCC(COCCF)CC2)CC1 (single isomer, unassigned) [Example 24] | > 40 µM |
| CC(C)OCC1CCC(N2CCC(N3C(=O)CO[C@H]4CCCC[C@@H]43)CC2)CC1 (single isomer, unassigned) [Example 18] | > 40 µM |
| CCOCC1CCC(N2CCC(N3C(=O)CO[C@H]4CCCC[C@@H]43)CC2)C1 (single isomer, unassigned) [Example 45] | > 40 µM |
| CCCOCC1CCC(N2CCC(N3C(=O)NC[C@H]4CCCC[C@@H]43)CC2)CC1 (single isomer, unassigned) [Example 01] | > 40 µM |
| CCOCC1CCC(N2CCC(N3C(=O)NC[C@H]4CCCC[C@@H]43)CC2)CC1 (mixture of isomers) [Example 08, (4aR,8aS)-1-(1-(4-(ethoxymethyl)cyclohexyl)piperidin-4-yl)octahydroquinazolin-2(1H)-one] | 0.069 µM |
| O=C1CO[C@H]2CCCC[C@@H]2N1C1CCN(C2CCC(COCC(F)F)CC2)CC1 (single isomer, unassigned) [Example 27] | > 40 µM |
| CCOC[C@H]1CC[C@@H](N2CCC(N3C(=O)CO[C@H]4CCCC[C@@H]43)CC2)C1 [Example 42, (4aS,8aS)-4-(1-((1R,3S)-3-(ethoxymethyl)cyclopentyl)piperidin-4-yl)hexahydro-2H-benzo[b][1,4]oxazin-3(4H)-one] | > 4.22 µM |
| CC(C)OCC1CCC(N2CCC(N3C(=O)NC[C@H]4CCCC[C@@H]43)CC2)CC1 (single isomer, unassigned) [Example 04] | > 40 µM |
| CC(C)OCC1CCC(N2CCC(N3C(=O)CO[C@H]4CCC(F)(F)C[C@@H]43)CC2)CC1 (single isomer, unassigned) [Example 37] | > 40 µM |
| CCOCC1CCC(N2CCC(N3C(=O)CO[C@H]4CCCC[C@@H]43)CC2)CC1 (single isomer, unassigned) [Example 14] | > 40 µM |
| O=C1CO[C@H]2CCCC[C@@H]2N1C1CCN(C2CCC(COCCF)CC2)CC1 (single isomer, unassigned) [Example 25] | > 40 µM |
| CCOCC1CC(N2CCC(N3C(=O)CO[C@H]4CCCC[C@@H]43)CC2)C1 (single isomer, unassigned) [Example 39] | > 40 µM |
| O=C1COC2CCCC2N1C1CCN([C@H]2CC[C@@H](COCC3CC3)CC2)CC1 (single isomer, unassigned) [Example 48] | > 40 µM |
| O=C1NC[C@H]2CCCC[C@@H]2N1C1CCN(C2CCC(COCC(F)F)CC2)CC1 (single isomer, unassigned) [Example 51] | > 15.7 µM |
| CCOC[C@@H]1CC[C@H](N2CCC(N3C(=O)CO[C@H]4CCCC[C@@H]43)CC2)C1 [Example 43, (4aS,8aS)-4-(1-((1S,3R)-3-(ethoxymethyl)cyclopentyl)piperidin-4-yl)hexahydro-2H-benzo[b][1,4]oxazin-3(4H)-one] | > 40 µM |
| CCOCC1CCC(N2CCC(N3C(=O)CO[C@H]4CCCC[C@@H]43)CC2)CC1 (single isomer, unassigned) [Example 13] | > 40 µM |
| CCCOCC1CCC(N2CCC(N3C(=O)NC[C@H]4CCCC[C@@H]43)CC2)CC1 (single isomer, unassigned) [Example 02] | > 2.77 µM |

Reference: US20090275574A1, “NOVEL COMPOUNDS-300” (ASTRAZENECA AB, priority 2008, published 2009)
